According to patent US12478643B2, “Compositions and methods for the prevention or treatment of rheumatoid arthritis” (Rhode Island Hospital, priority 2021, dated 2025):
pIC50: −log10 of the molar value.

Experiments:
DBA/1 mice = test: 3AC i.p. daily for 7 days in DBA/1 mice: Western blot and flow cytometry; type: in vivo, mouse
Description: Mice. All animals were maintained in pathogen-free conditions and all animal procedures followed protocols approved by the Institutional Animal Care and Use Committee (IACUC) of Rhode Island Hospital. The SHIP-1 knockout (KO) mice (Inpp5d<tm1Dmt>/J, Stock #003534) on a mixed genetic background (129/C57BL/6) were purchased from the Jackson Laboratory, Bar Harbor, ME, and backcrossed with C57BL/6 mice (Stock #000664, the Jackson Laboratory) for 5 generations. Heterozygous (SHIP-1^+/−) mice were intercrossed to obtain homozygous progeny (SHIP-1^−/−). Wild-type (WT) littermates (SHIP-1^+/+) of same age as SHIP1 KO mice were used as controls. DBA/1J mice (Stock #000670) were also purchased from the Jackson Laboratory.
Chemicals and reagents. Specific SHIP-1 inhibitor 3AC was purchased from Echelon Biosciences (Salt Lake, UT) and suspended in 0.3% Klucel (Sigma-Aldrich, St. Louis, MO) solution. The 3AC suspension was stirred by sonication and sterile filtered before injection. The 0.3% Klucel solution was used as a vehicle control.
Immunoblotting. Splenocytes were isolated from C57BL/6 WT and SHIP1 KO mice, and DBA/1 mice with or without 3AC treatment. The cells were then lysed with RIPA buffer containing Halt™ Protease and Phosphatase Inhibitor Cocktail (Thermo Scientific, Rockford, IL). Total lysates (30 μg/sample) were loaded on an SDS-PAGE gel and transferred onto an Immuno-Blot PVDF membrane (Bio-Rad, Hercules, CA). The membranes were first blocked and then probed with antibodies in TBS (20 mM Tris and 150 mM NaCl) containing 0.1% Tween-20 and 5% skim milk. Antibodies against SHIP-1 (P1C1) (sc-8425) and β-Actin (2A3) were purchased from Santa Cruz Biotechnology (Dallas, TX). Blots were developed by using a goat anti-mouse IgG antibody conjugated IRDye 800CW and imaged with an Odyssey imager (LI-COR, Lincoln, NE).
Flow cytometry analysis. Peripheral blood (PB) samples were collected from the retro-orbital sinus of mice on the indicated days. Bone marrow (BM) of femurs and tibiae and spleens were isolated from sacrificed mice. Following treatment with red blood cell lysing buffer (Sigma-Aldrich) and filtration through a nylon mesh, peripheral blood mononuclear cells (PBMCs), splenocytes, and whole BM cells were isolated and suspended in phosphate-buffered saline (PBS) containing 2% FBS. These cells were labeled with fluorophore-conjugated antibodies and subjected to flow cytometry. All antibodies used in flow cytometry were purchased from BioLegend (San Diego, CA): Alexa Fluor 488 anti-mouse CD11b, APC anti-mouse Gr-1, PE anti-mouse CD3e, APC/Cy7 anti-mouse B220, Alexa Flour 488 anti-mouse CD4, and APC anti-mouse CD25. 4′,6-Diamidino-2-Phenylindole (DAPI) was used to exclude DAPI+ dead cells during flow cytometry analysis. Data were acquired using LSR II flow cytometer (BD Biosciences) and analyzed with FlowJo software (FlowJo, Ashland, OR).
Statistical analysis. Data are shown as the mean values±standard error of the mean (SEM). The significance of difference was calculated with unpaired two-tailed Student's t-test or one-way ANOVA when comparing more than 2 groups by using GraphPad Prism (GraphPad Software, Inc., La Jolla, CA). P values less than 0.05 were considered to be statistically significant.

[1] = tested on: collagen-induced arthritis (CIA) in DBA/1 mice; test: Collagen-induced arthritis (CIA) prevention model, 3AC pre-treatment; type: in vivo, mouse
[2] = tested on: collagen-induced arthritis (CIA) in DBA/1 mice; test: Collagen-induced arthritis (CIA) intervention model, 3AC after second immunization; type: in vivo, mouse
[3] = tested on: CIA in C57BL/6 WT and SHIP1 KO mice; test: CIA in C57BL/6 WT and SHIP1 KO mice; type: in vivo, mouse
SHIP1 = target: T1, SHIP1 (Homo sapiens, UniProt Q92835); settings: read-out: IC50 SHIP-1; cited from earlier work
T1 sequence (Q92835 1-1189): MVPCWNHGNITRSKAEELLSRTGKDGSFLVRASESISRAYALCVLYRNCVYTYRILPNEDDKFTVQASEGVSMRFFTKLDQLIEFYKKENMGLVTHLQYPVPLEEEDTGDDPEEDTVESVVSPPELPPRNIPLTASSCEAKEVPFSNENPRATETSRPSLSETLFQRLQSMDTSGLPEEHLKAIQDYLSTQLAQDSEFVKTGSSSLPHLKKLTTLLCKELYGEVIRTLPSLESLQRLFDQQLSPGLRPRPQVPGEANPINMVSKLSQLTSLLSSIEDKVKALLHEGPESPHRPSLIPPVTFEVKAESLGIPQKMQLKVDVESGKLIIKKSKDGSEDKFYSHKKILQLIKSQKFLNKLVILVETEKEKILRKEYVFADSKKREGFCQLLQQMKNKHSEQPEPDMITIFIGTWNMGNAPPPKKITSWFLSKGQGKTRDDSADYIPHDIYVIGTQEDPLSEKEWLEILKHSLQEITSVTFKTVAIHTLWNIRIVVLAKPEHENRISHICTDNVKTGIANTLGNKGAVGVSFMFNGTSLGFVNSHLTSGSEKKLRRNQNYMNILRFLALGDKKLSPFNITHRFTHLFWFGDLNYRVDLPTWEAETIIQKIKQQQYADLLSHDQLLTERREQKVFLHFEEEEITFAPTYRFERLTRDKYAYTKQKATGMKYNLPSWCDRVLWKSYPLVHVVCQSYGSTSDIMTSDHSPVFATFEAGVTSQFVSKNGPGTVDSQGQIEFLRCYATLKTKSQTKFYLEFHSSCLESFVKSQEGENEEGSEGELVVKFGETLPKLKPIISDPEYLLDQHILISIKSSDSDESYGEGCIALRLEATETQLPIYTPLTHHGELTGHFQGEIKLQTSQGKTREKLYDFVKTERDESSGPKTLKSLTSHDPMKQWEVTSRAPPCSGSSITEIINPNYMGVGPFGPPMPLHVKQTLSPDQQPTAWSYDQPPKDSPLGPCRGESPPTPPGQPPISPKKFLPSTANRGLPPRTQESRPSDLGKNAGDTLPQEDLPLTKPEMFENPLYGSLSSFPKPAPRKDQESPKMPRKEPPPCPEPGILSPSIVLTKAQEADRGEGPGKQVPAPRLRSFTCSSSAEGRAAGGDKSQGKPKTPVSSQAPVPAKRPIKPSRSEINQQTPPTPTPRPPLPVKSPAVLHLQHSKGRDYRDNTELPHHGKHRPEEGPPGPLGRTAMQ

[4] = tested on: wild-type (WT) C57BL/6 mice; settings: cited from earlier work
SHIP-1 = settings: temporal inhibition of SHIP-1; cited from earlier work
mice = settings: as seen in SHIP-1 KO mice; cited from earlier work
[5] = tested on: hematopoietic cancer cells; settings: in vitro; cited from earlier work
[6] = tested on: xenograft model of multiple myeloma; settings: cited from earlier work
[7] = i.p. daily for 7 days, DBA/1 mice
[8] = 3AC daily for 7 days prior to CIA induction, vs vehicle
[9] = 3AC daily for 7 days starting on day 27

CC(C)CCC[C@@H](C)[C@H]1CC[C@H]2[C@@H]3CC[C@H]4C[C@H](N)CC[C@]4(C)[C@H]3CC[C@]12C [Compound 3AC, 3α-Aminocholestane]
CD3+ T cells in PB (DBA/1 mice; [7]): significant reduction | CD11b+Gr-1+ MDSCs in BM (DBA/1 mice; [7]): increase | CD11b+Gr-1+ MDSCs in peripheral blood (PB) (DBA/1 mice; [7]): increase | CD11b+Gr-1+ MDSCs in spleen (SP) (DBA/1 mice; [7]): increase | SHIP-1 protein depletion in splenocytes (Western blot) (DBA/1 mice; [7]): comparable to that in SHIP1 KO mice | Tregs in SP (DBA/1 mice; vs vehicle control mice): significantly elevated level | frequency of CD4+CD25+ Tregs in PB (DBA/1 mice; vs vehicle treated control mice): remained unchanged | CIA onset [1, 8]: significant delay | severity of CIA (clinical score) [1, 8]: significant reduction | misalignment, bone erosion and destruction of joint cartilage (radiographic assessment) ([1]; X-ray at day 63): nearly absent | time at which swelling and redness of limbs started to appear ([1]; after first immunization, 3AC pre-treated DBA/1 mice): 30 to 40 days | swollen and reddish front paws (photographic assessment) ([1]; day 42): much less so | Tregs in the spleen ([1]; following 3AC injection): higher number | CD3+ T cells in peripheral blood ([1]; till day 21, transient): decreased | MDSCs in peripheral blood ([1]; till day 21, transient): significantly increased | bone erosion (Toluidine Blue) ([1]; wrist joint of front paws): reduced bone erosion | cartilage damage (Safranin O) ([1]; wrist joint of front paws): reduced cartilage damage | inflammatory cell infiltration in the arthritic joint (H&E) ([1]; wrist joint of front paws): reduced inflammatory cell infiltration | CIA incidence [2, 9]: significantly reduced | CIA severity (clinical score) [2, 9]: significantly reduced | number of total T cell in peripheral blood ([2]; day 34): Significantly and transiently decreasing | number of Tregs in peripheral blood ([2]; mouse, in vivo): unchanged | number of Tregs in the spleen ([2]; onset and endpoint of the experiment, vs control): Comparable number | number of MDSCs in peripheral blood ([2]; vs vehicle-treated mice, day 34): Significantly but transiently increasing | incidence and severity of CIA in SHIP1 KO mice ([3]; SHIP1 KO mice treated with 3AC (data not shown)): did not improve | CIA development in C57BL/6 WT mice ([3]; WT mice with 3AC pre-treatment): did not develop CIA | pIC50 (SHIP1): ~5.60 | myeloid immunoregulatory cell compartment ([4]; WT C57BL/6 mice): significantly expand | ability of the immune system to prime allogeneic T cell responses ([4]; mouse models): impairs | SHIP-1 protein stability in cells (SHIP-1): reduces protein stability and induces protein degradation | pulmonary myeloid infiltration (mice): did not cause | apoptosis of hematopoietic cancer cells [5]: increases apoptosis | inflammation of peripheral tissues [6]: without association with severe inflammation of peripheral tissues | tumor cell growth [6]: reduces tumor cell growth
